We go through 31 molecules from ChEMBL document CHEMBL5046257, “Synthesis and Evaluation of Bakuchiol Derivatives as Potent Anti-inflammatory Agents in Vitro and in Vivo” (J Nat Prod, 2022).

As usually defined, the IC50 is the concentration needed to halve the response being measured.

Active and inactive are the calls of the source. The calls are words filed in the database; no cut-off is given here.

Series [1] in a line: Cytotoxicity against mouse RAW 264.7 cells assessed as decreased cell viability measured after 24 hrs by MTT assay. The format is toxicity, cell-based, RAW264.7. On the technique in general: Formazan colour is commonly taken as a measure of viable cells.
Series [2] concerns RAW264.7. Put plainly: Antiinflammatory activity in mouse RAW 264.7 cells assessed as inhibition of LPS-induced TNF-alpha production at 5 to 10 uM for 1 hrs followed by LPS stimulation for 23 hrs by ELISA. The format is functional, cell-based. The following applies: dose 5-10 µM, time 24.0 hrs. (In general: In an ELISA, binding on a coated surface is turned into a signal by an enzyme label.)

Series [3] deals with RAW264.7. Put plainly: Antiinflammatory activity in mouse RAW 264.7 cells assessed as inhibition of LPS-induced TNF-alpha production at 20 uM for 1 hrs followed by LPS stimulation for 23 hrs by ELISA. The class given is functional, cell-based. To be noted: time 24.0 hrs.
The species entered for series [4] is Danio rerio. Put plainly: Antiinflammatory activity in zebrafish assessed as inhibition of LPS-induced NO production at 2.5 to 5 uM for 24 hrs by laser confocal microscope. The format is functional, organism-based. The following applies: dose 2.5-5 µM.
The subject of series [5] is RAW264.7. Put plainly: Antiinflammatory activity against mouse RAW264.7 cells assessed as inhibition of LPS-induced iNOS expression at 10 uM for 1 hrs followed by LPS stimulation for 23 hrs by western blot analysis. The class given is functional, cell-based. The following applies: time 24.0 hrs. (In western blotting, separated proteins are transferred to a membrane and probed.)

The test system of series [6] is RAW264.7. Put plainly: Antiinflammatory activity against mouse RAW264.7 cells assessed as inhibition of LPS-induced COX2 expression at 10 uM for 1 hrs followed by LPS stimulation for 23 hrs by western blot analysis. The format is functional, cell-based. The following applies: time 24.0 hrs.
Series [7] has as its system RAW264.7. Put plainly: Antiinflammatory activity in mouse RAW264.7 cells assessed as downregulation of LPS-induced JNK phosphorylation at 5 to 10 uM for 1 hrs followed by LPS stimulation for 23 hrs by Western blot analysis. The format is functional, cell-based. The following applies: dose 5-10 µM, time 24.0 hrs.
Series [8] relates to RAW264.7. Put plainly: Antiinflammatory activity against mouse RAW264.7 cells assessed as inhibition of LPS-induced COX2 expression at 5 to 10 uM for 1 hrs followed by LPS stimulation for 23 hrs by western blot analysis. The format is functional, cell-based. The following applies: dose 5-10 µM, time 24.0 hrs.
The subject of series [9] is RAW264.7. Put plainly: Antiinflammatory activity in mouse RAW 264.7 cells assessed as inhibition of LPS-induced IL-6 production at 20 uM for 1 hrs followed by LPS stimulation for 23 hrs by ELISA. The format is functional, cell-based. The following applies: time 24.0 hrs.
The species named for series [10] is Danio rerio. Put plainly: Antiinflammatory activity in zebrafish assessed as inhibition of LPS-induced ROS production at 2.5 to 5 uM for 24 hrs by laser confocal microscope. The format is functional, organism-based. The following applies: dose 2.5-5 µM.
Series [11] has as its system RAW264.7. Put plainly: Antiinflammatory activity in mouse RAW264.7 cells assessed as inhibition of LPS-induced IKKbeta phosphorylation at 5 to 10 uM for 1 hrs followed by LPS stimulation for 23 hrs by Western blot analysis. The class given is functional, cell-based. The following applies: dose 5-10 µM, time 24.0 hrs.
In series [12] the test system is RAW264.7. Put plainly: Antiinflammatory activity in mouse RAW 264.7 cells assessed as inhibition of LPS-induced NO production at 20 uM for 1 hrs pretreatment followed by LPS stimulation for 23 hrs by Griess reagent assay. The class given is functional, cell-based. To be noted: time 24.0 hrs.
Series [13] relates to RAW264.7. Put plainly: Antiinflammatory activity in mouse RAW 264.7 cells assessed as inhibition of LPS-induced IL-6 production at 5 to 10 uM for 1 hrs followed by LPS stimulation for 23 hrs by ELISA. To be noted: dose 5-10 µM, time 24.0 hrs. The class given is functional, cell-based.
The subject of series [14] is RAW264.7. Put plainly: Antiinflammatory activity in mouse RAW264.7 cells assessed as upregulation of LPS-induced NRF2 expression at 5 to 10 uM for 1 hrs followed by LPS stimulation for 23 hrs by Western blot analysis. The class given is functional, cell-based. The following applies: dose 5-10 µM, time 24.0 hrs.
Series [15] concerns RAW264.7. Put plainly: Antiinflammatory activity in mouse RAW264.7 cells assessed as upregulation of LPS-induced HO-1 expression at 5 to 10 uM for 1 hrs followed by LPS stimulation for 23 hrs by Western blot analysis. To be noted: dose 5-10 µM, time 24.0 hrs. The class given is functional, cell-based.
In series [16] the test system is RAW264.7. Put plainly: Antiinflammatory activity in mouse RAW264.7 cells assessed as inhibition of LPS-induced ROS production at 5 to 10 uM for 1 hrs followed by LPS stimulation for 23 hrs by DCFH-DA staining based fluorescence assay. The format is functional, cell-based. The following applies: dose 5-10 µM, time 24.0 hrs.
The subject of series [17] is RAW264.7. Put plainly: Antiinflammatory activity in mouse RAW264.7 cells assessed as downregulation of LPS-induced ERK phosphorylation at 5 to 10 uM for 1 hrs followed by LPS stimulation for 23 hrs by Western blot analysis. The class given is functional, cell-based. The following applies: dose 5-10 µM, time 24.0 hrs.
In series [18] the test system is RAW264.7. Put plainly: Antiinflammatory activity in mouse RAW264.7 cells assessed as inhibition of LPS-induced NFkB p65 activation at 5 to 10 uM for 1 hrs followed by LPS stimulation for 23 hrs by Western blot analysis. The following applies: dose 5-10 µM, time 24.0 hrs. The class given is functional, cell-based.
Series [19] deals with RAW264.7. Put plainly: Antiinflammatory activity against mouse RAW264.7 cells assessed as inhibition of LPS-induced iNOS expression at 5 to 10 uM for 1 hrs followed by LPS stimulation for 23 hrs by western blot analysis. The following applies: dose 5-10 µM, time 24.0 hrs. The class given is functional, cell-based.
The subject of series [20] is RAW264.7. Put plainly: Antiinflammatory activity in mouse RAW264.7 cells assessed as downregulation of LPS-induced MAPK phosphorylation at 5 to 10 uM for 1 hrs followed by LPS stimulation for 23 hrs by Western blot analysis. The format is functional, cell-based. The following applies: dose 5-10 µM, time 24.0 hrs.

On to `C=C[C@@](C)(/C=C/c1ccc(OCC(=O)Nc2ccc(F)cc2)cc1)CCC=C(C)C`, for which the half-maximal inhibitory concentration (IC50) at 24 h in series [1] stood at 59.1 µM.
Turning to `C=C[C@@](C)(/C=C/c1ccc(OCc2cn(Cc3ccc(C)cc3)nn2)cc1)CCC=C(C)C`, in series [1], the IC50 at 24 h stood at 371 µM.
For the molecule `C=C[C@@](C)(/C=C/c1ccc(OCC(=O)N2CCCC2)cc1)CCC=C(C)C`, the inhibition result with RAW264.7 [2], in the series filed under Danio rerio [4], with RAW264.7 [8], in the series filed under Danio rerio [10], in the series on RAW264.7 [13] and in the series with RAW264.7 [16] was “Dose-Dependent Effect” throughout. Besides, the inhibition entry with RAW264.7 [19] was “Dose-Dependent Effect”. Moreover, the inhibition entry in the series with RAW264.7 [3], with RAW264.7 [5], in the series on RAW264.7 [6], in the series with RAW264.7 [9], with RAW264.7 [11] and in the series with RAW264.7 [12] was “Active” in each case. The inhibition result in the series with RAW264.7 [18] is “Active”. Besides, in [1], the IC50 at 24 h was 40.5 µM. The result with RAW264.7 [7], with RAW264.7 [17] and in the series with RAW264.7 [20] was Active. Moreover, the Activity result with RAW264.7 [14] and with RAW264.7 [15] was “Dose-Dependent Effect” in each case.
As to `C=C[C@@](C)(/C=C/c1ccc(OCc2cn(-c3ccc(C)cc3)nn2)cc1)CCC=C(C)C`, in series [1], the IC50 at 24 h was 86.9 µM.
On to `C=C[C@@](C)(/C=C/c1ccc(OC(=O)c2cn(-c3ccccc3)nn2)cc1)CCC=C(C)C`, for which the IC50 at 24 h in [1] amounted to 69.9 µM.
Take `C=C[C@@](C)(/C=C/c1ccc(OCC(=O)NC(c2ccc(C)cc2)P(=O)(OCC)OCC)cc1)CCC=C(C)C` (stereo not given in full): the IC50 at 24 h in [1] is 209 µM.
`C=C[C@@](C)(/C=C/c1ccc(OCC(=O)Nc2ccccc2)cc1)CCC=C(C)C`: in [1], the IC50 at 24 h came to 63.3 µM.
With `C=C[C@@](C)(/C=C/c1ccc(OC(=O)c2cc3cc(Cl)ccc3[nH]2)cc1)CCC=C(C)C`, in series [1], the IC50 at 24 h was determined as 110 µM.
As for `C=C[C@@](C)(/C=C/c1ccc(OC(=O)c2ccc3ncccc3c2)cc1)CCC=C(C)C`, in series [1], the IC50 at 24 h is 88 µM.
With `C=C[C@@](C)(/C=C/c1ccc(OCC(=O)N2CCCCC2)cc1)CCC=C(C)C`, the IC50 at 24 h in series [1] came to 58.6 µM.
With `C=C[C@@](C)(/C=C/c1ccc(OCC(=O)NC(c2ccc(F)cc2)P(=O)(OCC)OCC)cc1)CCC=C(C)C` (stereo not given in full), the IC50 at 24 h in series [1] came to 110 µM.
The same measure, in the same setting: under `C=C[C@@](C)(/C=C/c1ccc(OCc2cn(-c3ccc(OC)cc3)nn2)cc1)CCC=C(C)C` stands 47.4 µM; under `C=C[C@@](C)(/C=C/c1ccc(OCc2cn(Cc3ccc(Cl)cc3)nn2)cc1)CCC=C(C)C`, 327 µM; under `C=C[C@@](C)(/C=C/c1ccc(OCC(=O)Nc2ccc(Cl)cc2)cc1)CCC=C(C)C`, 50.7 µM.
Same read-out and setting: next, `C=C[C@@](C)(/C=C/c1ccc(OCc2cn(-c3ccc(F)cc3)nn2)cc1)CCC=C(C)C`: 233 µM; `C=C[C@@](C)(/C=C/c1ccc(OC(=O)c2cn(-c3ccc(Cl)cc3)nn2)cc1)CCC=C(C)C`: 115 µM; `C=C[C@@](C)(/C=C/c1ccc(OC(=O)c2cn(-c3ccc(F)cc3)nn2)cc1)CCC=C(C)C`: 79.9 µM.
As for `C=C[C@@](C)(/C=C/c1ccc(OCc2cn(Cc3ccccc3)nn2)cc1)CCC=C(C)C`, the IC50 at 24 h in series [1] amounted to 480 µM.
Turning to `C=C[C@@](C)(/C=C/c1ccc(OCc2cn(-c3ccc(C(F)(F)F)cc3)nn2)cc1)CCC=C(C)C`, the IC50 at 24 h in series [1] stood at 82.1 µM.
Consider `C=C[C@@](C)(/C=C/c1ccc(OCc2cn(Cc3ccc(OC)cc3)nn2)cc1)CCC=C(C)C`, for which the IC50 at 24 h in series [1] was 273 µM.
With `C=C[C@@](C)(/C=C/c1ccc(OCC(=O)Nc2cccc3cccnc23)cc1)CCC=C(C)C`, the concentration for half-maximal inhibition (IC50) at 24 h in series [1] amounted to 649 µM.
For the molecule `C=C[C@@](C)(/C=C/c1ccc(OC(=O)c2cc3cc(OC)ccc3[nH]2)cc1)CCC=C(C)C`, the IC50 at 24 h in [1] stood at 329 µM.
The same measure, in the same setting: under `C=C[C@@](C)(/C=C/c1ccc(O)cc1)CCC=C(C)C` [BAKUCHIOL] stands 97.2 µM; under `C=C[C@@](C)(/C=C/c1ccc(OC(=O)/C=C/c2ccccc2)cc1)CCC=C(C)C`, 157 µM; under `C=C[C@@](C)(/C=C/c1ccc(OCc2cn(Cc3ccc(F)cc3)nn2)cc1)CCC=C(C)C`, 157 µM.
Consider `C=C[C@@](C)(/C=C/c1ccc(OCc2cn(-c3ccccc3)nn2)cc1)CCC=C(C)C`, for which the IC50 at 24 h in [1] was found to be 172 µM.
Still for that read-out and setting: under `C=C[C@@](C)(/C=C/c1ccc(OC(=O)c2cn(-c3ccc(OC)cc3)nn2)cc1)CCC=C(C)C` stands 64.7 µM.
The same measure, in the same setting: next, `C=C[C@@](C)(/C=C/c1ccc(OC(=O)c2cn(-c3ccc(C)cc3)nn2)cc1)CCC=C(C)C`: 37.2 µM; `C=C[C@@](C)(/C=C/c1ccc(OCC(=O)NC(c2ccccc2)P(=O)(OCC)OCC)cc1)CCC=C(C)C` (stereo not given in full): 33.4 µM; `C=C[C@@](C)(/C=C/c1ccc(OC(=O)c2cc3ccccc3[nH]2)cc1)CCC=C(C)C`: 108 µM.
As to `C=C[C@@](C)(/C=C/c1ccc(OCc2cn(-c3ccc(Cl)cc3)nn2)cc1)CCC=C(C)C`, the concentration for half-maximal inhibition (IC50) at 24 h in series [1] came to 47.6 µM.
